Measured values: patent US10239869B2, “Sulfonamide compounds as voltage-gated sodium channel modulators” (LUPIN LIMITED, priority 2015, dated 2019)
Read-outs that look alike come from different tables or passages of the source.

What was measured:
Nav 1.5 = Nav 1.5 (Homo sapiens (Human), UniProt Q14524); test: Inhibition of sodium channels, Red Membrane Potential Dye FLIPR assay, veratridine depolarization; format: cell-based; details: HEK-293 cells overexpressing the channel
Nav 1.7 = Nav 1.7 (Homo sapiens (Human), UniProt Q15858); test: as above; format: cell-based; details: HEK-293 cells overexpressing the channel; for IC50: read-out: Nav1.7 IC50
Sequence of Nav 1.7 (Q15858 whole entry): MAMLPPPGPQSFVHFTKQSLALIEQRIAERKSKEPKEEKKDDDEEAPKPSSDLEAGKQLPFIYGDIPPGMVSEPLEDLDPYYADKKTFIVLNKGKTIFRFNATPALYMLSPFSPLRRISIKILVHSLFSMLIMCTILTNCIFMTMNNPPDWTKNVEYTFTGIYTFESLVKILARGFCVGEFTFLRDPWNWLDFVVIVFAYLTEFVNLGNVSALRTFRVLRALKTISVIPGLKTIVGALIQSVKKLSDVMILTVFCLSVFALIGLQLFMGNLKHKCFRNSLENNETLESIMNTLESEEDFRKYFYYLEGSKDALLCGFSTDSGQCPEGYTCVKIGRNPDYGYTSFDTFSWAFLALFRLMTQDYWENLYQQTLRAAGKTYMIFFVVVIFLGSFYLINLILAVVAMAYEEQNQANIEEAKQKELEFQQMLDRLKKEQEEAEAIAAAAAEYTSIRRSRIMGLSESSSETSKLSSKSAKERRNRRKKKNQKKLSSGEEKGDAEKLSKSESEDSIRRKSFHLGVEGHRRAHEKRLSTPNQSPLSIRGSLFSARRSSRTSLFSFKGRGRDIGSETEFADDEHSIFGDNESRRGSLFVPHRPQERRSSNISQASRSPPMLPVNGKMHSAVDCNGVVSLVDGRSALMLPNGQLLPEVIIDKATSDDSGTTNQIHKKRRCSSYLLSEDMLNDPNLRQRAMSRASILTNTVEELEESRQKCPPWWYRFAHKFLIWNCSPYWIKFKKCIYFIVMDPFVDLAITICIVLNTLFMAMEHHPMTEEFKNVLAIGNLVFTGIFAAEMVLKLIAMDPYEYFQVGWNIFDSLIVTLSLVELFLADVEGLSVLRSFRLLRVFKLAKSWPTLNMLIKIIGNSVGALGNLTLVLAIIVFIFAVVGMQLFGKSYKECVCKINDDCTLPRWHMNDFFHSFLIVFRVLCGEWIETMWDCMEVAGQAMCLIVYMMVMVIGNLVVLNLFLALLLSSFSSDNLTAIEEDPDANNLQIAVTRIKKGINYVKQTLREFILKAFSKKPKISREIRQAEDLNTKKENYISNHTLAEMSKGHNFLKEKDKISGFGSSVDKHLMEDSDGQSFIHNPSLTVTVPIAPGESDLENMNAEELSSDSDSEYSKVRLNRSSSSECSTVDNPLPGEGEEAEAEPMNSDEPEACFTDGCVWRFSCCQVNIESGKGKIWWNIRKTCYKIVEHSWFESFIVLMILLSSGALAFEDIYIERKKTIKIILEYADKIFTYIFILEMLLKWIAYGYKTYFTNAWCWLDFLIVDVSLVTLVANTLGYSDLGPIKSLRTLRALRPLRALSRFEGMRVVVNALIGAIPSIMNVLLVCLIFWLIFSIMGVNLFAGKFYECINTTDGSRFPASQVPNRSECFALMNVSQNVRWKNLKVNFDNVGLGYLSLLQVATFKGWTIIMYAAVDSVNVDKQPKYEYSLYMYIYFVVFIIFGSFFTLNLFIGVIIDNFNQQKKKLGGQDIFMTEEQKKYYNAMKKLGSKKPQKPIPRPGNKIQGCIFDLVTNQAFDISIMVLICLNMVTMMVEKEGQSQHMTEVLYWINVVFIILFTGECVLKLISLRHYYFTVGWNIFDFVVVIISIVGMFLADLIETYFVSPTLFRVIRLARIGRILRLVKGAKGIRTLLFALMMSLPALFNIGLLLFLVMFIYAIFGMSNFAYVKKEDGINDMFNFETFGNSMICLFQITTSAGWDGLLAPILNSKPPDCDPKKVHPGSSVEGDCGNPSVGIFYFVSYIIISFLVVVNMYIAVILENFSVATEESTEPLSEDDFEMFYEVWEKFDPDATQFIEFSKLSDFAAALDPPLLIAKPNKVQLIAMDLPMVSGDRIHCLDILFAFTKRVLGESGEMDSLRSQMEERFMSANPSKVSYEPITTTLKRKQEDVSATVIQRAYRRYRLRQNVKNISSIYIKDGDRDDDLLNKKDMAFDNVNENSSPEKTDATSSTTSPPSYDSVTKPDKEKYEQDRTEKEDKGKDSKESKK

[1] = read-out: Nav1.5 IC50 (bound given in μM)

Sequence of Nav 1.5 (Q14524 whole entry): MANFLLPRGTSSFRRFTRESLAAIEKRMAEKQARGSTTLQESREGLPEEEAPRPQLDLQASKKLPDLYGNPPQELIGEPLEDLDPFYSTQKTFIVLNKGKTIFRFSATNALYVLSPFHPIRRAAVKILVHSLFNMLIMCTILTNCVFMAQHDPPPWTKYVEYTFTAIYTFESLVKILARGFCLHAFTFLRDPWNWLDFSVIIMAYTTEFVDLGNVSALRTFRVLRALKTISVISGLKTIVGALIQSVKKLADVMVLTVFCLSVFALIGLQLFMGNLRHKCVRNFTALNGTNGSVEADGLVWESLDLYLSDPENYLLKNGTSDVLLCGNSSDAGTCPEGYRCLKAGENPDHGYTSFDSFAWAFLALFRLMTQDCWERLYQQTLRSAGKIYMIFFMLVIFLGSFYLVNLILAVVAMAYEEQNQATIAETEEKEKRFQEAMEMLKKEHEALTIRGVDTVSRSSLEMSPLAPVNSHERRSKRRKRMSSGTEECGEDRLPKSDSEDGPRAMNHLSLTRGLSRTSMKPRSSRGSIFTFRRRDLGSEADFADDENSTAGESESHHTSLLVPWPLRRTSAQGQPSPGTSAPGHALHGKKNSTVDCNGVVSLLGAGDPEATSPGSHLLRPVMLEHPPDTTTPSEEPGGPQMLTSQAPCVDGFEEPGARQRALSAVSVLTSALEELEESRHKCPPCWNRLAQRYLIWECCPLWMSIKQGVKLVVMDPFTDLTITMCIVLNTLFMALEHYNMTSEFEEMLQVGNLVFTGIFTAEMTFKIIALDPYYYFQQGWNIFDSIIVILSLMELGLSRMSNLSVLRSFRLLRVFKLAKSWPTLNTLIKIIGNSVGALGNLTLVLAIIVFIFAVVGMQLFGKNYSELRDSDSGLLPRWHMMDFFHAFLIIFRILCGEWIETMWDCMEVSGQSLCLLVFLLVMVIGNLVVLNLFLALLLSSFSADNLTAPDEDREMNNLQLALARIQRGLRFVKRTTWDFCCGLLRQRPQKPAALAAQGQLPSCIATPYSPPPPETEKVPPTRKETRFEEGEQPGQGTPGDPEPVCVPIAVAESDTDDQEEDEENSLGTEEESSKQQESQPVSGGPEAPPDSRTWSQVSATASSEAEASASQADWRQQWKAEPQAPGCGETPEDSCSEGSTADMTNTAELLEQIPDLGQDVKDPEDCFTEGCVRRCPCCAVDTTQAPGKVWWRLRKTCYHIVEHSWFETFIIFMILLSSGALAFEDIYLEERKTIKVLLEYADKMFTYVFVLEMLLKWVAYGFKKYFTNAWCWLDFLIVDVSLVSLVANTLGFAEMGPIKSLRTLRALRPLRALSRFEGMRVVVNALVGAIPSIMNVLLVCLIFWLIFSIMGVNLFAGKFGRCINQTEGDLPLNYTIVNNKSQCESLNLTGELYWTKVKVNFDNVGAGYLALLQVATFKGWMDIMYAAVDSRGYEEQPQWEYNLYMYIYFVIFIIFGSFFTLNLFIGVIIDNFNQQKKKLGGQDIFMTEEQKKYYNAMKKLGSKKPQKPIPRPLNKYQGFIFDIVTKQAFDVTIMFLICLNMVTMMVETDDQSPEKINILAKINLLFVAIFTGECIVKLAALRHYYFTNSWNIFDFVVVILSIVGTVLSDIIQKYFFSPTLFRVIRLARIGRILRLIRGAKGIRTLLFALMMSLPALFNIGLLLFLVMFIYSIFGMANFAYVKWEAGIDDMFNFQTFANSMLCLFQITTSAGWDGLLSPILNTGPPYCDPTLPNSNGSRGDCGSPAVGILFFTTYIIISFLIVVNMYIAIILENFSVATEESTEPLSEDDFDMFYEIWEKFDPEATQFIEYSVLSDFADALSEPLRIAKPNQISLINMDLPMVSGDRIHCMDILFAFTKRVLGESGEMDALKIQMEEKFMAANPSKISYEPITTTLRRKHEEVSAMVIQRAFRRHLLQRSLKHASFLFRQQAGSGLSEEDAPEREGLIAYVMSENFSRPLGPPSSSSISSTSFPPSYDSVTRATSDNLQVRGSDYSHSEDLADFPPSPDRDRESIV

| SMILES | IC50 (Nav 1.5; [1]) [µM] | IC50 (Nav 1.7) [nM] | other results |
| --- | --- | --- | --- |
| COCCc1cc(C(F)(F)F)ccc1[C@H]1CCOc2cc(S(=O)(=O)Nc3ncccn3)ccc21 (racemic) [Example 135, (R/S)-4-(2-(2-methoxyethyl)-4-(trifluoromethyl)phenyl)-N-(pyrimidin-2-yl)chroman-7-sulfonamide] | > 10 | 708 |  |
| O=S(=O)(Nc1ncccn1)c1ccc2c(c1)OCC[C@@H]2c1ccc(C(F)(F)F)cc1OC1COC1 [Example-217, (R&S)-4-(2-(oxetan-3-yloxy)-4-(trifluoromethyl)phenyl)-N-(pyrimidin-2-yl)chroman-7-sulfonamide] |  | 152 | Nav1.5 % inhibition @ 10 μM (Nav 1.5; 10 μM): 50% |
| Cc1nc(-c2cc(C(F)(F)F)ccc2[C@H]2CCOc3cc(S(=O)(=O)Nc4cccnn4)ccc32)ccc1F (racemic) [Example-224, (R/S)-4-(2-(5-fluoro-6-methylpyridin-2-yl)-4-(trifluoromethyl)phenyl)-N-(pyridazin-3-yl)chroman-7-sulfonamide] |  | 51 | IC50 (Nav 1.5; read-out: Nav1.5 IC50): 2.12 µM |
| O=S(=O)(Nc1cccc(F)n1)c1ccc2c(c1)OCC[C@@H]2c1ccc(C(F)(F)F)cc1CCC(F)F (racemic) [Example-215, (R/S)-4-(2-(3,3-difluoropropyl)-4-(trifluoromethyl)phenyl)-N-(6-fluoropyridin-2-yl)chromane-7-sulfonamide] |  | 38 | IC50 (Nav 1.5; read-out: Nav1.5 IC50): 1.35 µM |
| COc1cc(C(F)(F)F)ccc1[C@H]1CCOc2cc(S(=O)(=O)Nc3cccc(F)n3)ccc21 [Example-229, (S&R)—N-(6-fluoropyridin-2-yl)-4-(2-methoxy-4-(trifluoromethyl)phenyl)chroman-7-sulfonamide] |  | 156 | Nav1.5 % inhibition @ 10 μM (Nav 1.5; 10 μM): 42% |
| O=S(=O)(Nc1cccnn1)c1ccc2c(c1)OCCC2c1ccc(C(F)(F)F)cc1-n1ccnn1 (stereo not shown) [Example 53, (S&R)-4-(2-(1H-1,2,3-Triazol-1-yl)-4-(trifluoromethyl)phenyl)-N-(pyridazin-3-yl)chromane-7-sulfonamide] |  |  | Nav1.5 % inhibition @ 10 μM (Nav 1.5; 10 μM): 44%; Nav1.7 inhibition @ 10 μM (Nav 1.7): 70% |
| Cc1nc(-c2cc(C(F)(F)F)ccc2[C@H]2CCOc3cc(S(=O)(=O)Nc4ccncn4)ccc32)cs1 [Example 68, (S&R)-4-(2-(2-Methylthiazol-4-yl)-4-(trifluoromethyl)phenyl)-N-(pyrimidin-4-yl)chroman-7-sulfonamide] |  | 0.9 | Nav1.5 % inhibition @ 10 μM (Nav 1.5; 10 μM): 29% |
| CC(C)Oc1ccc(-c2cc(C(F)(F)F)ccc2[C@@H]2CCOc3cc(S(=O)(=O)Nc4ncc(F)cn4)ccc32)cn1 [Example 99, (S&R)—N-(5-fluoropyrimidin-2-yl)-4-(2-(6-isopropoxypyridin-3-yl)-4-(trifluoromethyl)phenyl)chroman-7-sulfonamide] |  | 1060 | Nav1.5 % inhibition @ 10 μM (Nav 1.5; 10 μM): 80% |
| CC(C)Oc1cccc(NS(=O)(=O)c2ccc3c(c2)OCC[C@H]3c2ccc(C(F)(F)F)cc2-c2ccnn2C)n1 [Example 25, (S&R)—N-(6-isopropoxypyridin-2-yl)-4-(2-(1-methyl-1H-pyrazol-5-yl)-4-(trifluoromethyl)phenyl)chroman-7-sulfonamide] | > 10 | 221 |  |
| COCCCOc1cc(C(F)(F)F)ccc1[C@H]1CCOc2cc(S(=O)(=O)Nc3cccc(F)n3)ccc21 (racemic) [Example 134, (R/S)—N-(6-fluoropyridin-2-yl)-4-(2-(3-methoxypropoxy)-4-(trifluoromethyl)phenyl)chroman-7-sulfonamide] |  | 31 | IC50 (Nav 1.5; read-out: Nav1.5 IC50): 1.34 µM |
| Cc1ccnc(NS(=O)(=O)c2ccc3c(c2)OCC[C@@H]3c2ccc(C(F)(F)F)cc2-c2ccnn2C)n1 [Example 30, (S&R)-4-(2-(1-methyl-1H-pyrazol-5-yl)-4-(trifluoromethyl)phenyl)-N-(4-methylpyrimidin-2-yl)chroman-7-sulfonamide] | > 10 |  | Nav1.7 inhibition @ 10 μM (Nav 1.7): 72% |
| COCCc1cc(C(F)(F)F)ccc1[C@H]1CCOc2cc(S(=O)(=O)Nc3ccncn3)ccc21 (racemic) [Example 138, (R/S)-4-(2-(2-methoxyethyl)-4-(trifluoromethyl)phenyl)-N-(pyrimidin-4-yl)chroman-7-sulfonamide] | > 10 | 588 |  |
| CCOc1ccc(-c2cc(C(F)(F)F)ccc2[C@@H]2CCOc3cc(S(=O)(=O)Nc4ncc(F)cn4)ccc32)cn1 [Example 101, (S&R)-4-(2-(6-ethoxypyridin-3-yl)-4-(trifluoromethyl)phenyl)-N-(5-fluoropyrimidin-2-yl)chroman-7-sulfonamide] |  | 2590 | Nav1.5 % inhibition @ 10 μM (Nav 1.5; 10 μM): 51% |
| O=S(=O)(Nc1ccncn1)c1ccc2c(c1)OCC[C@@H]2c1ccc(C(F)(F)F)cc1CCF (racemic) [Example 155, (R/S)-4-(2-(2-fluoroethyl)-4-(trifluoromethyl)phenyl)-N-(pyrimidin-4-yl)chroman-7-sulfonamide] | > 10 | 4 |  |
| O=S(=O)(Nc1ncc(F)cn1)c1ccc2c(c1)OCC[C@@H]2c1ccc(C(F)(F)F)cc1CCCF (racemic) [Example 159, (R/S)-4-(2-(3-fluoropropyl)-4-(trifluoromethyl)phenyl)-N-(5-fluoropyrimidin-2-yl)chroman-7-sulfonamide] |  | 10 | IC50 (Nav 1.5; read-out: Nav1.5 IC50): 0.943 µM |
| O=S1(=O)CCN(c2cc(C(F)(F)F)ccc2[C@H]2CCOc3cc(S(=O)(=O)Nc4cccnn4)ccc32)CC1 (racemic) [Example-236, (R/S)-4-(2-(1,1-dioxidothiomorpholino)-4-(trifluoromethyl)phenyl)-N-(pyridazin-3-yl)chroman-7-sulfonamide] | > 10 | 113 |  |
| COCCCc1cc(C(F)(F)F)ccc1[C@@H]1CCOc2cc(S(=O)(=O)Nc3ncccn3)ccc21 [Example 140, (S&R)-4-(2-(3-methoxypropyl)-4-(trifluoromethyl)phenyl)-N-(pyrimidin-2-yl)chroman-7-sulfonamide] | > 10 | 1740 |  |
| O=C(O)c1ccc(-c2cc(C(F)(F)F)ccc2[C@H]2CCOc3cc(S(=O)(=O)Nc4ncc(F)cn4)ccc32)cc1 [compound 190, (S&R)-2′-(7-(N-(5-fluoropyrimidin-2-yl)sulfamoyl)chroman-4-yl)-5′-(trifluoromethyl)-[1,1′-biphenyl]-4-carboxylic acid] | > 10 | 257 |  |
| CS(=O)(=O)CCc1cc(C(F)(F)F)ccc1[C@@H]1CCOc2cc(S(=O)(=O)Nc3ncccn3)ccc21 [Example 83, (S&R)-4-(2-(2-(Methylsulfonyl)ethyl)-4-(trifluoromethyl)phenyl)-N-(pyrimidin-2-yl)chroman-7-sulfonamide] | > 10 |  | Nav1.7 inhibition @ 10 μM (Nav 1.7): 71% |
| O=S(=O)(Nc1ncccn1)c1ccc2c(c1)OCC[C@@H]2c1ccc(C(F)(F)F)cc1OCCCF [Example-221, (S&R)-4-(2-(3-fluoropropoxy)-4-(trifluoromethyl)phenyl)-N-(pyrimidin-2-yl)chroman-7-sulfonamide] |  | 42 | IC50 (Nav 1.5; read-out: Nav1.5 IC50): 1.47 µM |
| CS(=O)(=O)CCc1cc(C(F)(F)F)ccc1[C@@H]1CCOc2cc(S(=O)(=O)Nc3ccncn3)ccc21 [Example 87, (S&R)-4-(2-(2-(Methylsulfonyl)ethyl)-4-(trifluoromethyl)phenyl)-N-(pyrimidin-4-yl) chroman-7-sulfonamide] | > 10 |  | Nav1.7 inhibition @ 10 μM (Nav 1.7): 58% |
| O=S(=O)(Nc1ncccn1)c1ccc2c(c1)OCC[C@@H]2c1ccc(C(F)(F)F)cc1CCC(F)F (racemic) [Example-211, (R/S)-4-(2-(3,3-difluoropropyl)-4-(trifluoromethyl)phenyl)-N-(pyrimidin-2-yl)chroman-7-sulfonamide] |  | 7 | IC50 (Nav 1.5; read-out: Nav1.5 IC50): 0.777 µM |
| COCCCOc1cc(C(F)(F)F)ccc1[C@H]1CCOc2cc(S(=O)(=O)Nc3cccnn3)ccc21 (racemic) [Example 133, (R/S)-4-(2-(3-methoxypropoxy)-4-(trifluoromethyl)phenyl)-N-(pyridazin-3-yl)chroman-7-sulfonamide] |  | 128 | inhibition at 10 µM (Nav 1.5; HEK-293 cells overexpressing Nav 1.5, 10 μM): 66% |
| Cn1nccc1-c1cc(C(F)(F)F)ccc1[C@H]1CCOc2cc(S(=O)(=O)Nc3cccnc3F)ccc21 [Example 28, (S&R)—N-(2-fluoropyridin-3-yl)-4-(2-(1-methyl-1H-pyrazol-5-yl)-4-(trifluoromethyl)phenyl)chroman-7-sulfonamide] | > 10 | 1570 |  |
| COCCCCc1cc(C(F)(F)F)ccc1[C@H]1CCOc2cc(S(=O)(=O)Nc3cccc(F)n3)ccc21 [Example 152, (S&R)—N-(6-fluoropyridin-2-yl)-4-(2-(4-methoxybutyl)-4-(trifluoromethyl)phenyl)chroman-7-sulfonamide] |  | 40 | Nav1.5 % inhibition @ 10 μM (Nav 1.5; 10 μM): 67% |
| COCCCc1cc(C(F)(F)F)ccc1[C@H]1CCOc2cc(S(=O)(=O)Nc3ccncn3)ccc21 (racemic) [Example 143, (R/S)-4-(2-(3-methoxypropyl)-4-(trifluoromethyl)phenyl)-N-(pyrimidin-4-yl)chroman-7-sulfonamide] |  | 16 | IC50 (Nav 1.5; read-out: Nav1.5 IC50): 0.534 µM |
| COCCCCc1cc(C(F)(F)F)ccc1[C@@H]1CCOc2cc(S(=O)(=O)Nc3ncccn3)ccc21 [Example 146, (S&R)-4-(2-(4-methoxybutyl)-4-(trifluoromethyl)phenyl)-N-(pyrimidin-2-yl)chroman-7-sulfonamide] | > 10 | 790 |  |
| O=C1COCCN1c1cc(C(F)(F)F)ccc1[C@@H]1CCOc2cc(S(=O)(=O)Nc3ncccn3)ccc21 [Example-230, (S&R)-4-(2-(3-oxomorpholino)-4-(trifluoromethyl)phenyl)-N-(pyrimidin-2-yl)chroman-7-sulfonamide] | > 10 | 4420 |  |
| O=C(O)c1ccc(-c2cc(C(F)(F)F)ccc2[C@@H]2CCOc3cc(S(=O)(=O)Nc4ncc(F)cn4)ccc32)cc1 [Example-189, (S&R)-2′-(7-(N-(5-fluoropyrimidin-2-yl)sulfamoyl)chroman-4-yl)-5′-(trifluoromethyl)-[1,1′-biphenyl]-4-carboxylic acid] | > 10 | 1810 |  |
